Read-outs that look alike come from different tables or passages of the source.
Columns and labels:
[1] = system: CHIP; conditions: cited from earlier work
Excerpt: Moreover, the appearance of pS416 and tauC3 are coincident in AD patient samples (see Fig. 5), supporting a putative role of these PTMs in tau proteostasis. Based on these collective findings and in concert with observations from the literature, we propose a model to explain the hierarchy of these tau PTMs (Fig. 6D). In this speculative model, FL tau can either be phosphorylated by MARK2 or CaMKII ...

[2] = target: CHIP; assay: CHIP-tau binding ELISA (tau proteoforms on immobilized CHIP)

In the case of “p.tau: full length phosphorylated tau produced in Sf9 insect cells”, the “fold better binding of CHIP than to unmodified FL tau” value [1] is given as 10 fold, the Kd ([2]; Fig 1C,D, tau proteoform binding to immobilized CHIP (1 µM coated), 3 h RT, technical triplicate, ± SD) is given as about 500 nM and the Kd ([2]; Fig 1D, replicate 1) is given as 433 nM. The Kd ([2]; Fig 1D, replicate 2) was 464 nM, the Kd ([2]; Fig 1D, replicate 3) was 471 nM and the Kd ([2]; read-out: transformed Kd, Fig 1D, replicate 1) was 433 nM. For the same substance, the Kd ([2]; read-out: transformed Kd, Fig 1D, replicate 2) was 464 nM and the Kd ([2]; read-out: transformed Kd, Fig 1D, replicate 3) was 471 nM.

From publication PMC11393453, “Phosphorylation of tau at a single residue inhibits binding to the E3 ubiquitin ligase, CHIP” (Nature Communications, 2024)
